Key:
[1] = target: full-length human BTK (Homo sapiens (Human), UniProt Q06187); experiment: Assay A: microfluidic off-chip mobility shift assay against BTK enzyme; type: biochemical
[2] = target: BTK C481S (His-TEV-hsBTK(328-659)(C481S)) (Homo sapiens (Human), UniProt Q06187, C481S); experiment: Assay B: microfluidic off-chip mobility shift assay against BTK C481S enzyme; type: biochemical; conditions: BTK C481S mutant
How it was run: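 Substrate-to-phosphopeptide conversion quantified by microfluidic mobility shift with laser-induced fluorescence; IC50 and efficacy from log[inhibitor] vs. % activity.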

[3] = system: anti-IgM-induced expression of CD69 on CD19 positive cells (B cells) in human PBMCs; experiment: Assay C: PBMC IC50 assay (anti-IgM-induced CD69 expression); type: cell-based; conditions: anti-IgM stimulation
How it was run: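 Freshly isolated human PBMCs (2.5×10^5/well) pretreated 1 h with compound, then stimulated overnight (~16-18 h) with goat F(ab′)2 anti-human IgM. CD69 on CD19+ B cells measured by flow cytometry; IC50 from percentage CD69+ B cells versus concentration.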

[4] = target: LCK (Homo sapiens (Human), UniProt P06239); experiment: Assay E: LCK biochemical assay (HotSpot Kinase Assay); conditions: for inhibition at 1 µM: read-out: LCK % inhibition at 1 uM test concentration (Assay E)
LCK, sequence (P06239 whole entry): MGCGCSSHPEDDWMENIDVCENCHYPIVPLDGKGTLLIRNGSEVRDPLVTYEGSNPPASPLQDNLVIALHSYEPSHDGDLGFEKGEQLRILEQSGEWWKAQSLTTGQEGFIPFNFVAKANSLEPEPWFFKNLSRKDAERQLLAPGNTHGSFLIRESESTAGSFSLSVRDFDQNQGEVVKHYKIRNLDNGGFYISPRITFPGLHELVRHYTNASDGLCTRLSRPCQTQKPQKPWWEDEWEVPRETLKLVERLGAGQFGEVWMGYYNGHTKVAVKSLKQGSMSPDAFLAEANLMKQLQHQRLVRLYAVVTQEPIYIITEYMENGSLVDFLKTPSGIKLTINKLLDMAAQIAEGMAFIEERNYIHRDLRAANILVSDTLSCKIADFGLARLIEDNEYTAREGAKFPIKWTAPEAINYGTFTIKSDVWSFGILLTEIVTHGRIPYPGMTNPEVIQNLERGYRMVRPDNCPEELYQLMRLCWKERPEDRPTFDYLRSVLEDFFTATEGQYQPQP
Procedure: Assay E: LCK Biochemical Assay
The standard protocol below describes the standard HotSpot Kinase Assay run by the Reaction Biology Corporation as a service.
The substrate (poly(EY) (Glu:Tyr (4:1)) and the cofactors were prepared in fresh Reaction Buffer (20 mM Hepes (pH 7.5), 10 mM MgCl2, 2 mM MnCl2, 1 mM EGTA, 0.02% Brij35, 0.02 mg/ml BSA, 0.1 mM Na3VO4, 2 mM DTT, 2% DMSO). To the substrate solution was then added the enzyme (LCK; recombinant human full-length (Genbank Accession #NP_005347); C-terminal His-tagged, expressed in insect cells), and the resulting solution was then gently mixed. The test compounds were dissolved in DMSO and then delivered into the kinase reaction mixture using acoustic liquid handling technology (Echo550; nanoliter range). The reaction mixture was incubated for 20 min at RT and then treated with ^33P-ATP to initiate the reaction. After 2 hours of incubation at RT, kinase activity was detected using Reaction Biology Corporation's proprietary P81 filter-binding method.

[5] = system: IL-1β release by human THP-1 cells; experiment: Assay D: THP-1 cells IL-1β release ELISA assay; type: cell-based; conditions: PMA and LPS, BzATP stimulation
Procedure: Assay D: THP-1 Cells IL-1β release ELISA Assay
The assay measures IL-1β release by human THP-1 cells after treatment with PMA and LPS in response to BzATP stimulation in order to evaluate the potency of P2X7 inhibitors. THP-1 cells (2×10^5 cells/mL) in culture medium (RPMI1640 (Gibco, #22400-089)+10% HI-FBS (Gibco, #10082-147)+1% L-Glutamine (Gibco, #25030)+1% Pen/Strep (Gibco, #15140) complemented with 0.5 μM PMA (Sigma, #P8139) were incubated for 30 min at 37° C. At the end of the incubation time, the cells were titrated and washed gently in PBS. The cells were then re-suspended to a density of 1.5×10^5 cell/mL in culture medium complemented with 10 ng/mL LPS (Sigma, #L5293). The cell suspension was dispensed (40 μL/well) into a Corning 384-well plate. After 4 hr of incubation at 37° C., the cells were treated with 20 μL of test compounds at various concentrations. The plate was incubated for 30 min at 37° C. and then the cells were treated with 20 μL of 3.2 mM BzATP (Sigma. #B6396) (0.8 mM final concentration). The plate was incubated for an additional 30 min at 37° C., and then subjected to centrifugation (4 min, 1000 rpm). Supernatant (60 μL) from each well was transferred to a 384-matrix PP plate. The plate was then stored at 4° C. (overnight) or −20° C. for longer term storage. The next day, the […] were measured using a human […] ELISA Kit (R & D systems, catalog #DY201) and read using a SpectraMax Plus 384 Microplate Reader.

BTK C481S (His-TEV-hsBTK(328-659)(C481S)), sequence (Q06187 328-659 C481S): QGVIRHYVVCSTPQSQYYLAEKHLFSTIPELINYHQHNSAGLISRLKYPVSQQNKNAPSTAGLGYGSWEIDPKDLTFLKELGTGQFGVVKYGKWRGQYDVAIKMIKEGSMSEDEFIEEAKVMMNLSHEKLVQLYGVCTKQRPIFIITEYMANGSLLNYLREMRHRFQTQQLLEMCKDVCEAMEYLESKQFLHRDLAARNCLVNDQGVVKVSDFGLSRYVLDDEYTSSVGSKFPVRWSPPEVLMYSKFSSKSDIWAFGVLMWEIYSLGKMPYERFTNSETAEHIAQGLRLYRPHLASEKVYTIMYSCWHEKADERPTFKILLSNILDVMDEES
full-length human BTK, sequence (Q06187 whole entry): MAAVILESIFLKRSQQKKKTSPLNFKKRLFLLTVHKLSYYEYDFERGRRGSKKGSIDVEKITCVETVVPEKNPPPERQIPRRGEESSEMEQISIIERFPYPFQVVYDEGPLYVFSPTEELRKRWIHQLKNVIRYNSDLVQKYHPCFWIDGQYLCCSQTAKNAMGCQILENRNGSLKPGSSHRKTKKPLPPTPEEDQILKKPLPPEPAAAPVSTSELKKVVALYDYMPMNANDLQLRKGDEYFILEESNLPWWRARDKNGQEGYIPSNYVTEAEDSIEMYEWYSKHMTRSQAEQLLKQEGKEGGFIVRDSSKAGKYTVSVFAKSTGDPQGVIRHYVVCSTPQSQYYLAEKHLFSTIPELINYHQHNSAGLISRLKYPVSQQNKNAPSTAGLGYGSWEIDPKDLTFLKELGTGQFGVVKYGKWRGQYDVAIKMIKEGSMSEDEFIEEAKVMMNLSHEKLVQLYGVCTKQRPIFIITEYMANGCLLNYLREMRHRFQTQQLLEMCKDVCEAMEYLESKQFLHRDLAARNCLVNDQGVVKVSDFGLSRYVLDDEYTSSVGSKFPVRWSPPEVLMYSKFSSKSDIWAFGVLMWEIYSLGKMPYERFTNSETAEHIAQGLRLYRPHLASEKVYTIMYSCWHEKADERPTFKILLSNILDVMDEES

IC50 [1] [nM] | IC50 [2] [nM] | inhibition at 1 µM [4] [%] | IC50 [5] [nM] | IC50 [4] [µM] | SMILES | IC50 [3] [nM]
< 100 | < 100 | 17 |  |  | Cn1cc(-c2nc3c(-c4ccc(CNC(=O)c5ccc(C(C)(C)C)cc5)c(C(F)(F)F)c4)ccnc3[nH]2)cn1 [Example 108, 4-tert-Butyl-N-{4-[2-(1-methyl-1H-pyrazol-4-yl)-3H-imidazo[4,5-b]pyridin-7-yl]-2-trifluoromethyl-benzyl}-benzamide] | < 100
< 100 |  | 11 |  |  | CN(C)c1ccc(-c2nc3c(-c4ccc(CNC(=O)c5noc(C(C)(C)C)n5)c(F)c4)ccnc3[nH]2)nc1 [Example 146, 5-tert-Butyl-[1,2,4]oxadiazole-3-carboxylic acid 4-[2-(5-dimethylamino-pyridin-2-yl)-3H-imidazo[4,5-b]pyridin-7-yl]-2-fluoro-benzylamide] | 100 to 1000
< 100 | < 100 |  | < 100 |  | CC(C)(C)c1ccc(C(=O)NCc2ccc(-c3ccnc4[nH]c(-c5ccc(C(=O)N6CCOCC6)cc5)nc34)cc2F)cc1 [Example 118, 4-tert-Butyl-N-(2-fluoro-4-{2-[4-(morpholine-4-carbonyl)-phenyl]-3H-imidazo[4,5-b]pyridin-7-yl}-benzyl)-benzamide] | < 100
 |  | 49 |  |  | Cn1cc(-c2nc3c(-c4ccc(CNC(=O)c5cc(C(C)(C)C)no5)c(F)c4)ccnc3[nH]2)cn1 [Example 144, 3-(tert-butyl)-N-(2-fluoro-4-(2-(1-methyl-1H-pyrazol-4-yl)-3H-imidazo[4,5-b]pyridin-7-yl)benzyl)isoxazole-5-carboxamide] | 
< 100 | < 100 |  | 100 to 1000 |  | Cc1c(NC(=O)c2ccc(C(C)(C)C)cc2)cccc1-c1ccnc2[nH]c(-c3ccc(C(=O)O)cc3)nc12 [Example 153, 4-{7-[3-(4-tert-Butyl-benzoylamino)-2-methyl-phenyl]-3H-imidazo[4,5-b]pyridin-2-yl}-benzoic acid] | > 5000
< 100 | < 100 |  |  | 585 | CC(C)(C)c1nc(C(=O)NCc2ccc(-c3ccnc4[nH]c(-c5ccc(N6CCC(O)CC6)cn5)nc34)cc2F)no1 [Example 84, 5-tert-butyl-N-[(2-fluoro-4-[2-[5-(4-hydroxypiperidin-1-yl)pyridin-2-yl]-3H-imidazo[4,5-b]pyridin-7-yl]phenyl)methyl]-1,2,4-oxadiazole-3-carboxamide] | < 100
> 5000 | > 5000 |  | 1000 to 5000 |  | CC(C)(O)CCN1Cc2cc(-c3ccnc4[nH]c(-c5ccc(C(=O)N6CCOCC6)cc5)nc34)ccc2C1=O [Example 114, 2-(3-Hydroxy-3-methyl-butyl)-5-{2-[4-(morpholine-4-carbonyl)-phenyl]-3H-imidazo[4,5-b]pyridin-7-yl}-2,3-dihydro-isoindol-1-one] | 
< 100 |  | 7.3 |  |  | CC(C)(C)c1nc(C(=O)NCc2ccc(-c3ccnc4[nH]c(-c5ccc(N6CCC(F)(F)CC6)cn5)nc34)cc2F)no1 [Example 82, 5-tert-Butyl-N-[(4-[2-[5-(4,4-difluoropiperidin-1-yl)pyridin-2-yl]-3H-imidazo[4,5-b]pyridin-7-yl]-2-fluorophenyl)methyl]-1,2,4-oxadiazole-3-carboxamide] | < 100
 |  |  | 100 to 1000 |  | Cc1c(NC(=O)c2ccc(C(C)(C)C)cc2)cccc1-c1ccnc2[nH]c(-c3cnn(C)c3)nc12 [Example 9, 4-tert-Butyl-N-{2-methyl-3-[2-(1-methyl-1H-pyrazol-4-yl)-3H-imidazo[4,5-b]pyridin-7-yl]-phenyl}-benzamide] | 1000 to 5000
< 100 | < 100 |  | < 100 |  | CC(C)(C)c1ccc2c(c1)CCN(Cc1ccc(-c3ccnc4[nH]c(-c5ccc(C(=O)N6CCOCC6)cc5)nc34)cc1)C2=O [Example 115, 6-tert-Butyl-2-(4-{2-[4-(morpholine-4-carbonyl)-phenyl]-3H-imidazo[4,5-b]pyridin-7-yl}-benzyl)-3,4-dihydro-2H-isoquinolin-1-one] | 100 to 1000
 |  |  | < 100 |  | Cc1c(NC(=O)c2ccc(C(C)(C)C)cc2)cccc1-c1ccnc2[nH]c(-c3ccc(C(=O)N4CCOCC4)cc3)nc12 [Example 5, 4-(tert-butyl)-N-(2-methyl-3-(2-(4-(morpholine-4-carbonyl)phenyl)-3H-imidazo[4,5-b]pyridin-7-yl)phenyl)benzamide] | 1000 to 5000
< 100 |  |  | 100 to 1000 |  | CN1CC=C(c2ccc(-c3nc4c(-c5cccc(N6CCOc7cc(C8CC8)cc(F)c7C6=O)c5CO)ccnc4[nH]3)cc2)CC1 [Example 3, 8-Cyclopropyl-6-fluoro-4-[2-(hydroxymethyl)-3-[2-[4-(1-methyl-1,2,3,6-tetrahydropyridin-4-yl)phenyl]-3H-imidazo[4,5-b]pyridin-7-yl]phenyl]-2,3,4,5-tetrahydro-1,4-benzoxazepin-5-one] | 100 to 1000
1000 to 5000 | 1000 to 5000 |  | < 100 |  | Cc1ccc(-n2ccn(-c3cccc(-c4ccnc5[nH]c(-c6ccc(C(=O)N7CCOCC7)cc6)nc45)c3C)c2=O)cc1 [Example 95, 1-[2-Methyl-3-(2-[4-[(morpholin-4-yl)carbonyl]phenyl]-3H-imidazo[4,5-b]pyridin-7-yl)phenyl]-3-(4-methylphenyl)-2,3-dihydro-1H-imidazol-2-one] | 
< 100 | < 100 | 15 |  |  | CC1CN(c2ccc(-c3nc4c(-c5ccc(CNC(=O)c6noc(C(C)(C)C)n6)c(F)c5)ccnc4[nH]3)nc2)CC(C)O1 (stereo not drawn) [Example 81, 5-tert-Butyl-N-[(4-[2-[5-(2,6-dimethylmorpholin-4-yl)pyridin-2-yl]-3H-imidazo[4,5-b]pyridin-7-yl]-2-fluorophenyl)methyl]-1,2,4-oxadiazole-3-carboxamide] | < 100
< 100 | < 100 |  | 100 to 1000 |  | O=C(c1ccc(-c2nc3c(-c4cccc(N5CCc6cc(C7CC7)ccc6C5=O)c4CO)ccnc3[nH]2)cc1)N1CCOCC1 [Example 6, 6-Cyclopropyl-2-(2-hydroxymethyl-3-{2-[4-(morpholine-4-carbonyl)-phenyl]-3H-imidazo[4,5-b]pyridin-7-yl}-phenyl)-3,4-dihydro-2H-isoquinolin-1-one] | 1000 to 5000
< 100 | < 100 | 29 |  |  | Cn1cc(-c2nc3c(-c4ccc(CN5Cc6cc(C(C)(C)C)sc6C5=O)c(F)c4)ccnc3[nH]2)cn1 [Example 92, 2-tert-Butyl-5-([2-fluoro-4-[2-(1-methyl-1H-pyrazol-4-yl)-3H-imidazo[4,5-b]pyridin-7-yl]phenyl]methyl)-4H,5H,6H-thieno[2,3-c]pyrrol-6-one] | 100 to 1000
< 100 |  | 40 |  |  | CC(C)(C)c1nnc(C(=O)NCc2ccc(-c3ccnc4[nH]c(C5=CCOCC5)nc34)cc2F)o1 [Example 138, 5-(tert-butyl)-N-(4-(2-(3,6-dihydro-2H-pyran-4-yl)-3H-imidazo[4,5-b]pyridin-7-yl)-2-fluorobenzyl)-1,3,4-oxadiazole-2-carboxamide] | 100 to 1000

SMILES | IC50 [1] [nM] | IC50 [2] [nM] | inhibition at 1 µM [4] [%] | IC50 [5] [nM] | IC50 [4] [µM] | IC50 [3] [nM]
Cn1cc(-c2nc3c(-c4ccc(CNC(=O)N5CC(OC(C)(C)C)C5)c(F)c4)ccnc3[nH]2)cn1 [Example 55, 3-(tert-Butoxy)-N-([2-fluoro-4-[2-(1-methyl-1H-pyrazol-4-yl)-3H-imidazo[4,5-b]pyridin-7-yl]phenyl]methyl)azetidine-1-carboxamide] |  |  |  | 1000 to 5000 |  | 100 to 1000

— patent publication US11098041B2 (Merck Patent GmbH, priority 2014, dated 2021)
